Results from patent US5461057A, “Hydro-ethano-indeno-pyridines” (priority 1994, dated 1995).

Key:
[1] = test system: histamine-induced dyspnea; assay: Bronchodilator (in vivo) Guinea Pig Dyspnea; settings: oral, one hour before histamine challenge; for responders at 50 mg/kg / responders at 100 mg/kg: Cavia porcellus, 1 h, read-out: DYSP survivors (converted)
Description: Unanesthetized guinea pigs (250-350 g), fasted overnight were placed in individual closed aerosol chambers which were connected to a Monoghan Ultrasonic nebulizer. The nebulizer can deliver an ultrasonic fog of uniform particles in a range of 1-8 microns. A 0.1% solution of histamine is aerosolized into the chambers causing the guinea pigs to develop dyspnea. The test drug was given orally one hour before the histamine challenge and the onset of dyspnea was recorded. Saline control animals developed dyspnea within 90-120 seconds of aerosol exposure. […] The data was expressed as the number tested over the number survived. The model was sensitive to bronchodilator and H1 antihistamine activity. Further information relating this test can be obtained from the following two publications which are hereby incorporated by reference: Dungan, K. W. and Lish, P. M. J Allergy 32:139-151 (1961). and Lish, P. M., Robbins, S. I. and Petres E. L. J. Pharmacol. Exp. Therap. 153 L 1538 (1966 ).

[2] = test system: pulmonary resistance; assay: Pulmonary Resistance in the Anesthetized Rat; type: in vivo; settings: 0.5 mpk, i.v., mean of 5 animals, % decrease in pre-drug baseline resistance; for inhibition in vivo at 0.5 mg/kg: Rattus norvegicus, iv, read-out: Pulmonary Resistance in Rats, % Inhibition
Description: Rats (400-500 g) anesthetized with dialurethane were surgically prepared with tracheal and esophageal catheters. These catheters were connected to pressure transducers for recording of air flow, tracheal and esophageal pressures. These pressures formed the basis for measurement of pulmonary resistance. Inhibition of pulmonary resistance is a reflection of bronchodilation.
All compounds were tested i. v. in 5 separate animals. All data are expressed in % decrease in the pre-drug baseline resistance and each number given is the mean of the 5 animals tested.
The model is sensitive to bronchodilator activity.
Further information relating this test can be obtained from the following publications which are hereby incorporated by reference: Comroe et al, J. Appl. Physio. 4:439-44 (1959); Dungan et al J. Pharmacol. Exp. Therap. 164:290-301(1968); and Mead, J. et al. J. Appl. Physio. 5:779-796 (1953).

[3] = test system: acetic acid-induced writhing; assay: Acetic Acid Writhing Test in Mice; type: in vivo, mouse; settings: Mus musculus, po, read-out: WRITH ED50
From the text: The blockade of writhing induced by the intraperitoneal injection of acetic acid is an established experimental animal model for the screening of antinociceptive drugs (drugs which prevent the appreciation or transmission of pain sensations).
The procedure for the Acetic Acid Writhing Test in Mice is set forth in Hendershot et al, J. Pharmacol. Exp. Therap. 125:237, (1959); Koster et al., Fed. Proc. 18:412, (1959); and international application PCT/US91/06705, filed 20 Sep. 1991, which are hereby incorporated by reference.
The results for this test are given below in the units of mg/kg which is also abbreviated in this specification as mpk. The results for this test are given as effective doses (ED50 's).

[4] = test system: TBZ-induced ptosis; assay: Effects on tetrabenazine (TBZ)-induced ptosis in mice; type: in vivo, mouse; settings: for ED50: Mus musculus, po
From the text: Clinically active antidepressant drugs are known to block TBZ-induced ptosis in mice (See Psychosomatic Medicine, Nodine and Moyer, Eds. Lea and Febiger, Philadelphia, 1962, pp 683-90, which is hereby incorporated by reference). Activity in this test is used to predict anti-depressant activity in man.
The procedure for the TBZ-Induced Ptosis Test in Mice is set forth in Psychosomatic Medicine, Nodine and Moyer, Eds. Lea and Febiger, which is hereby incorporated by reference and in PCT/US91/06705, filed 20 Sep. 1991, which is mentioned above.
(§1) The results for this test are given below as ED50 's in the units of mg/kg.
TBZ refers to the test of effects on tetrabenazine induced ptosis in mice, p.o.;

[5] = test system: muricidal (mouse-killing) behavior; assay: Effects on muricidal behavior in rats; type: in vivo, rat; settings: Rattus norvegicus, read-out: MUR ED50
From the text: Blockade of muricidal (mouse-killing) behavior in rats is used as a measure of evaluating the anti-depressant activity of drugs, and the procedure for carrying out this test is set forth in Int. J. Neuro-pharmacal., 5, 405-411 (1966) are hereby incorporated by reference, and in PCT/US91/06705, filed 20 Sep. 1991, which is mentioned above.
as §1
MUR refers to the test on the effects on muricidal behavior in rats;

[6] = test system: methamphetamine toxicity; assay: Methamphetamine toxicity test in mice; type: in vivo; settings: Mus musculus, read-out: METHA ED50
Description: The methamphetamine toxicity test in mice was carried out as described in Burn et al, Arch. Int. Pharmacodyn 113:290-295, (1958); and Coscia et al, Arzneim-Forsch (Drug Research) 25:1436-1442, (1975); which are hereby incorporated by reference.
(§2) The results for this test are given below as ED50's in the units of mg/kg.
METHA refers to the methamphetamine toxicity test in mice;

[7] = test system: metrazole; assay: Anti-metrazole test in mice; type: in vivo, mouse; settings: Mus musculus, read-out: MTZ ED50
Description: The anti-metrazole test in mice was carried out as described in Everett et al, J. Pharmacol. Exp. Therap. 81:402-407 (1944); which is hereby incorporated by reference.
as §2

[8] = test system: LOX human melanoma cell adhesion to human fibronectin; assay: LOX melanoma cell adhesion to fibronectin; type: cell-based; settings: Homo sapiens, LOX; for inhibition at 10 µM: read-out: % Inhibition at 10 μM; for inhibition at 50 µM: read-out: % Inhibition at 50 μM; for IC50: Table 4, 1 hour adhesion, read-out: LOX FN IC50
Description: (§3) Adhesion assays were run essentially as described previously (Pai et al., J. Biomed. Res. 2: 53, 1992). 96-well plates were coated with human fibronectin (140 ng/well), human vitronectin (75 ng/well), human collagen I (100 ng/well), human collagen IV (100 ng/well), human fibrinogen (1 μg/well), murine laminin (600 ng/well), or polylysine, and incubated overnight in a humidified 37° C. incubator. Excess fibronectin or other substrate was then removed and 0.2 ml of 2 mg/ml bovine serum albumin (BSA)in Dulbecco's phosphate-buffered saline (DPBS) was added to each well, incubated for 2 hours at 37° C., and removed. LOX human melanoma cells, M27 murine lung carcinoma cells or B16F10 mouse melanoma cells were detached from tissue culture flasks with RPMI medium containing 0.2M urea and 10 mM EDTA, and 0.18 ml of cells were added to each well to a final cell concentration of 1×10^5 cells/well. For inhibition studies 20 μl of 10× compound was added to the wells prior to cell addition. Cells were allowed to adhere for 1 hour at 37° C. The wells were then gently washed twice with 0.2 ml DPBS. The fluorescent dye calcein AM (Molecular Probes, Eugene Oreg.) in DPBS (0.1 ml of 1 μM) was added to each well, and the plates were incubated for 1 hour at room temperature. Adherent cells were quantitated by reading the fluorescence on a Cytofluor 2300 fluorescent plate reader (Millipore) at 485 nm excitation and 530 nm emission.
LOX FN-IC50 value for inhibition of adhesion of LOX human melanoma cells to fibronectin coated on a plastic surface.

[9] = Calcein cytotoxicity assay; type: cell-based; settings: human, lox melanoma cells; 2 hours, calcein AM assay; read-out: 2 Hr Tox LD50
Description: LOX human melanoma cells were detached from tissue culture flasks with RPMI medium containing 0.2M urea and 10 mM EDTA, and 0.18 ml of cells were added to each well to a final cell concentration of 5×10^4 cells/well. 20 μl of 10× compound was added to the wells prior to cell addition. Cells were incubated with the compound at 37° C. for 1 hour or 5 hour as indicated. Calcein AM in DPBS (0.02 ml of 5 μM) was added to each well, and the plates were incubated for an additional 1 hour at room temperature. Viable cells were quantitated by reading the fluorescence on a Cytofluor 2300 fluorescent plate reader at 485 nm excitation and 530 nm emission.

[10] = test system: LOX human melanoma cell adhesion to polylysine; assay: LOX melanoma cell adhesion to polylysine; type: cell-based; settings: read-out: Poly Lys IC50
Description: as §3

| Structure (SMILES) | responders at 50 mg/kg [1] | inhibition in vivo at 0.5 mg/kg [2] | ED50 [3] | ED50 [4] | ED50 [5] | ED50 [6] | ED50 [7] | inhibition at 10 µM [8] | inhibition at 50 µM [8] | IC50 [8] | CC50 at 2 h [9] | IC50 [10] | DYSP survivors ([1]; 100 mg/kg) | Pulmonary Resistance in Rats, % Inhibition [2] | responders at 100 mg/kg ([1]; 100 mg/kg) | DYSP survivors ([1]; 30 mg/kg) | DYSP survivors ([1]; 60 mg/kg) | observation in TBZ test (footnote c) ([4]; p.o., at the dose of 30 marked c) |
| --- | --- | --- | --- | --- | --- | --- | --- | --- | --- | --- | --- | --- | --- | --- | --- | --- | --- | --- |
| CN1C2CCC1C1c3ccccc3C(O)(c3ccccc3)C1C2 (stereo not shown) [AAA] | 0% | 35% | > 30 mg/kg | > 30 mg/kg | > 10 mg/kg | > 30 mg/kg | > 30 mg/kg | 5.2% | 5.8% | – | – | – | – | – | – | – | – | – |
| COc1ccc(C2C3=C(c4ccccc42)C2CCC(C3)N2)cc1 (stereo not shown) [Compound X] | – | – | > 30 mg/kg | 17.3 mg/kg | > 30 mg/kg | > 60 mg/kg | – | 20.8% | 99.7% | 15 µM | 67.7 µM | 121 µM | – | – | – | – | – | – |
| COc1ccc2c(c1)C(c1ccccc1)C1=C2C2CCC(C1)N2 (stereo not shown) [FF] | – | – | > 30 mg/kg | > 30 mg/kg | – | > 30 mg/kg | > 30 mg/kg | – | – | – | – | – | 0/3 | 2% | – | – | – | – |
| COc1ccc(C2(O)c3ccccc3C3C4CCC(CC32)N4)cc1 (stereo not shown) [JJ] | 33.3% | – | > 30 mg/kg | > 30 mg/kg | – | > 30 mg/kg | > 30 mg/kg | 10.1% | 33.7% | – | – | – | – | – | 66.7% | – | – | – |
| CN1C2CCC1C1C(=C(c3ccc(F)cc3)c3ccccc31)C2 (stereo not shown) [K] | – | – | – | > 30 mg/kg | – | 14.9 mg/kg | > 30 mg/kg | 27.6% | 100% | 15.5 µM | 116 µM | 71.6 µM | 3/3 | 34% | – | 0/3 | 1/3 | animals were ataxic and depressed at this dose |
| CN1C2CCC1C1c3ccccc3C(c3ccccc3)C1C2 (stereo not shown) [MM] | 0% | 9% | – | 9.3 mg/kg | > 10 mg/kg | – | – | -1.8% | 25.8% | – | – | – | – | – | 66.7% | – | – | – |
